Tests used:
Format in all cases: cell-based
[1] = target: T1, hNaV1.6 N1768D (Homo sapiens, UniProt Q9UQD0, N1768D); assay: Automated patch-clamp, patient-identified variant in Expi293F cells
T1 construct: expression vector containing the full-length cDNA coding for specific human and mouse sodium channel α-subunit; expressed in transfected cells; host or cells: Expi293F (transient, tetracycline-induced, pcDNA4/TO)
Method: (§1) For studies of mutant channels, cDNA plasmids in pcDNA4/TO Mammalian Expression Vector were transiently transfected into Expi293F cells stably expressing human FHF2b and human SCN1B subunit (polyclonal) background using ExpiFectamine 293 Transfection Kits (Gibco,Thermo Fisher Scientific CAT #: A14524). Induction was achieved using Tetracycline (Sigma Aldrich). Transfected cells were used in automated patch-clamp experiments 24 hours postinduction.
(§2) Inorm(CPD)=(ICPD−Icontrol)/(ITTX−Icontrol).

[2] = target: T2, hNaV1.6 N1877S (Homo sapiens, UniProt Q9UQD0, N1877S); assay: as above
T2 construct: expression vector containing the full-length cDNA coding for specific human and mouse sodium channel α-subunit; expressed in transfected cells; host or cells: Expi293F (transient, tetracycline-induced, pcDNA4/TO)
T2 sequence (Q9UQD0 whole entry N1877S): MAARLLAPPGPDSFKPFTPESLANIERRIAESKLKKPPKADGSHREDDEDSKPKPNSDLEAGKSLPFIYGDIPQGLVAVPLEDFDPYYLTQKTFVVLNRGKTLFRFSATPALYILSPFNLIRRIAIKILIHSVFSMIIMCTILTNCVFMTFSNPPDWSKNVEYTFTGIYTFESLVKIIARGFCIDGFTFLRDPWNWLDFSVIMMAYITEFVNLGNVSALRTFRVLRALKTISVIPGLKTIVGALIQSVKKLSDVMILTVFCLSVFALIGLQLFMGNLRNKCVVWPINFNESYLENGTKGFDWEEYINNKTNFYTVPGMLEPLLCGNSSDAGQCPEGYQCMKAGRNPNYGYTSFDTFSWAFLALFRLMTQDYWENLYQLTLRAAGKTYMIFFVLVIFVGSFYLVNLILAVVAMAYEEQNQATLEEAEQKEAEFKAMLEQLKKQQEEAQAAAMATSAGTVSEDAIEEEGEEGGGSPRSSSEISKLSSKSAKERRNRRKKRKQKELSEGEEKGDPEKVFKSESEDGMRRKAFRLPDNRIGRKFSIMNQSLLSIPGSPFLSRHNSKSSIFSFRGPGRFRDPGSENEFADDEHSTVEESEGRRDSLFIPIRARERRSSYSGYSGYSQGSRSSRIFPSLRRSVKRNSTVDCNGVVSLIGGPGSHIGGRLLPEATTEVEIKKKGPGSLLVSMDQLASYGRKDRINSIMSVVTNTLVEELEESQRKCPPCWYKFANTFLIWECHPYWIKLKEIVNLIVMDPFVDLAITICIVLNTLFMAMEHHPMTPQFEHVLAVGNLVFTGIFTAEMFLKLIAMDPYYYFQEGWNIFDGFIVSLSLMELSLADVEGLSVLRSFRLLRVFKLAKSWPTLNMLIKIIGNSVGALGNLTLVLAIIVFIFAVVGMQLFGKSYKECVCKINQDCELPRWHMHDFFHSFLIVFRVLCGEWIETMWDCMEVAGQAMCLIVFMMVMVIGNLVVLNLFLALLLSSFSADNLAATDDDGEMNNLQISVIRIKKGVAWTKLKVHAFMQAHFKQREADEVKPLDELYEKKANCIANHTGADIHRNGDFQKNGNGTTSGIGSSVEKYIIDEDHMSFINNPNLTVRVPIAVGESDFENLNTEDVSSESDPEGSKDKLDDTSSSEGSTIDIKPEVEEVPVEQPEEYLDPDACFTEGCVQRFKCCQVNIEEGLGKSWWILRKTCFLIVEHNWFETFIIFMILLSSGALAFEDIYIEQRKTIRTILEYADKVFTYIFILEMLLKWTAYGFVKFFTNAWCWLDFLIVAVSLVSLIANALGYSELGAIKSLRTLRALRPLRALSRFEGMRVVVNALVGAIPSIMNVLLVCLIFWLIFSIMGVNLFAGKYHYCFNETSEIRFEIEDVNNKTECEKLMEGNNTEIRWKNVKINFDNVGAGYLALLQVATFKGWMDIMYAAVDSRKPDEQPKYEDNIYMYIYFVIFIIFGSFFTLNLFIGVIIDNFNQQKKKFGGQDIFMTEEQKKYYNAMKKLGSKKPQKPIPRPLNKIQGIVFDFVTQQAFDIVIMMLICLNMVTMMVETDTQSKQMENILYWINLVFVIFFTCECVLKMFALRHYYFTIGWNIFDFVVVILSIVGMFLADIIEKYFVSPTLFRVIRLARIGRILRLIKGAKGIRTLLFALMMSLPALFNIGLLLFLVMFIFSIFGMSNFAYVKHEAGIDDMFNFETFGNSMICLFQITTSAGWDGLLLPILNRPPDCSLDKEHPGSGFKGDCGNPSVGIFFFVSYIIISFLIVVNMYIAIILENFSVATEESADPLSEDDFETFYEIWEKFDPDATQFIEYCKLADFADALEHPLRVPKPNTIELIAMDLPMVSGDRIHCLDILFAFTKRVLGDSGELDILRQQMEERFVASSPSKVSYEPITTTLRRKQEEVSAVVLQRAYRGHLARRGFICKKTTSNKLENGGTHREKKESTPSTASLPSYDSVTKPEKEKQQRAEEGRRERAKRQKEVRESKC
Method: as §1, §2

[3] = target: T3, hNaV1.6 I1327V (Homo sapiens, UniProt Q9UQD0, I1327V); assay: as above
T3 construct: expression vector containing the full-length cDNA coding for specific human and mouse sodium channel α-subunit; expressed in transfected cells; host or cells: Expi293F (transient, tetracycline-induced, pcDNA4/TO)
T3 sequence (Q9UQD0 whole entry I1327V): as the sequence (Q9UQD0 whole entry N1877S) above, with I1327V, S1877N counted along it
Method: as §1, §2

[4] = target: T4, hNaV1.6 R1872W (Homo sapiens, UniProt Q9UQD0, R1872W); assay: as above
T4 construct: expression vector containing the full-length cDNA coding for specific human and mouse sodium channel α-subunit; expressed in transfected cells; host or cells: Expi293F (transient, tetracycline-induced, pcDNA4/TO)
T4 sequence (Q9UQD0 whole entry R1872W): as the sequence (Q9UQD0 whole entry N1877S) above, with R1872W, S1877N counted along it
Method: as §1, §2

[5] = target: T5, hNaV1.6 R1617Q (Homo sapiens, UniProt Q9UQD0, R1617Q); assay: as above
T5 construct: expression vector containing the full-length cDNA coding for specific human and mouse sodium channel α-subunit; expressed in transfected cells; host or cells: Expi293F (transient, tetracycline-induced, pcDNA4/TO)
T5 sequence (Q9UQD0 whole entry R1617Q): as the sequence (Q9UQD0 whole entry N1877S) above, with R1617Q, S1877N counted along it
Method: as §1, §2

[6] = target: T6, N1768D NaV1.6 persistent currents (Homo sapiens, UniProt Q9UQD0, N1768D); assay: Persistent current inhibition
T6 construct: expression vector containing the full-length cDNA coding for specific human and mouse sodium channel α-subunit; expressed in transfected cells; host or cells: Expi293F (transient, tetracycline-induced, pcDNA4/TO)
T6 sequence (Q9UQD0 whole entry N1768D): as the sequence (Q9UQD0 whole entry N1877S) above, with N1768D, S1877N counted along it
T6 sequence (Q92913 1-192 isoform Q92913-2 partner): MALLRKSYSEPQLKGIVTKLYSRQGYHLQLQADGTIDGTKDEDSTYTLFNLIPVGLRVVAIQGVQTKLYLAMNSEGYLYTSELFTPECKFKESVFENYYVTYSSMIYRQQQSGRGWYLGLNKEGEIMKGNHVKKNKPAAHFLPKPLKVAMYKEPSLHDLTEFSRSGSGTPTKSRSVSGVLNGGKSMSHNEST
Text: Elevated persistent and or resurgent currents are believed to underlie or contribute to the pathology of many sodium channel related pathologies ([Mason et al., 2019]; [Pan and Cummins, 2020]; [Potet et al., 2020]; [Tidball et al., 2020]; [Zaman et al., 2019]). In most conditions, normal NaV1.6 channels inactivate rapidly and nearly completely after opening.
as §2

T1 sequence (Q9UQD0 whole entry N1768D): as the sequence (Q9UQD0 whole entry N1877S) above, with N1768D, S1877N counted along it

Cc1cc(S(=O)(=O)Nc2cscn2)c(F)cc1N(C)[C@H]1CCN(Cc2ccccc2)C1 [NBI-921352]
h1.6-N1768D 145756 norm, Mean ([1]; -5 LogM): 0.9
h1.6-N1768D 145756 norm, Mean ([1]; -5.47716 LogM): 0.88
h1.6-N1768D 145756 norm, Mean ([1]; -5.95429 LogM): 0.82
h1.6-N1768D 145756 norm, Mean ([1]; -6.4318 LogM): 0.74
h1.6-N1768D 145756 norm, Mean ([1]; -6.91009 LogM): 0.62
h1.6-N1768D 145756 norm, Mean ([1]; -7.38722 LogM): 0.46
h1.6-N1768D 145756 norm, Mean ([1]; -7.85387 LogM): 0.18
h1.6-N1768D 145756 norm, Mean ([1]; -8.33 LogM): 0.03
h1.6-N1877S 145756 norm, Mean ([2]; -5 LogM): 0.94
h1.6-N1877S 145756 norm, Mean ([2]; -5.47716 LogM): 0.93
h1.6-N1877S 145756 norm, Mean ([2]; -5.95429 LogM): 0.88
h1.6-N1877S 145756 norm, Mean ([2]; -6.4318 LogM): 0.84
h1.6-N1877S 145756 norm, Mean ([2]; -6.91009 LogM): 0.68
h1.6-N1877S 145756 norm, Mean ([2]; -7.38722 LogM): 0.53
h1.6-N1877S 145756 norm, Mean ([2]; -7.85387 LogM): 0.27
h1.6-N1877S 145756 norm, Mean ([2]; -8.33 LogM): 0.1
IC50 [3]: 35 nM
h1.6-I1327V 145756, Mean ([3]; -5 LogM): 0.91
h1.6-I1327V 145756, Mean ([3]; -5.47716 LogM): 0.88
h1.6-I1327V 145756, Mean ([3]; -5.95429 LogM): 0.9
h1.6-I1327V 145756, Mean ([3]; -6.4318 LogM): 0.82
h1.6-I1327V 145756, Mean ([3]; -6.91009 LogM): 0.67
h1.6-I1327V 145756, Mean ([3]; -7.38722 LogM): 0.56
h1.6-I1327V 145756, Mean ([3]; -7.85387 LogM): 0.29
h1.6-I1327V 145756, Mean ([3]; -8.33 LogM): 0.13
h1.6-R1872W 145756, Mean ([4]; -5 LogM): 0.9
h1.6-R1872W 145756, Mean ([4]; -6 LogM): 0.87
h1.6-R1872W 145756, Mean ([4]; -7 LogM): 0.55
h1.6-R1872W 145756, Mean ([4]; -8 LogM): 0.13
h1.6-R1617Q 145756, Mean ([5]; -5 LogM): 0.85
h1.6-R1617Q 145756, Mean ([5]; -6 LogM): 0.64
h1.6-R1617Q 145756, Mean ([5]; -7 LogM): 0.24
h1.6-R1617Q 145756, Mean ([5]; -8 LogM): 0.07
N1768D current in (352)/(Vehicle), Persistent, mean ([6]; -5 Log M): 0.93
N1768D current in (352)/(Vehicle), Persistent, mean ([6]; -5.47712 Log M): 0.92
N1768D current in (352)/(Vehicle), Persistent, mean ([6]; -5.95424 Log M): 0.91
N1768D current in (352)/(Vehicle), Persistent, mean ([6]; -6.43136 Log M): 0.87
N1768D current in (352)/(Vehicle), Persistent, mean ([6]; -6.90848 Log M): 0.63
N1768D current in (352)/(Vehicle), Persistent, mean ([6]; -7.38561 Log M): 0.44
N1768D current in (352)/(Vehicle), Persistent, mean ([6]; -7.86274 Log M): 0.21
N1768D current in (352)/(Vehicle), Persistent, mean ([6]; -8.33989 Log M): 0
IC50 ([6]; non-inactivating current 10ms after initiation of test pulse): 59 nM

Reference: article PMC8903829 (eLife, 2022)
